Assay results: patent US20230087844A1, “USE OF N2-QUINCLINE OR ISOQUINOLINE SUBSTITUTED PURINE DERIVATIVES IN CANCER TREATMENT” (SHANGHAI HUAYU BIOTECHNOLOGY CO., LTD., priority 2020, published 2023)
Marks after values point to notes of the source that are not given here.

Experiments:
MV-4-11 cells = assay: MV-4-11 AML xenograft in mice, combination with daunorubicin (Example 8); type: in vivo, BALB-cA nude mice; conditions: 30 mg/kg P.O., D0-10
Protocol: Mice body weights and tumor sizes were measured twice a week. The tumor volume, T/C and TGI (Tumor growth inhibition=(average tumor volume in vehicle group-average tumor volume in administration group)/average tumor volume in vehicle group ×100%) were calculated. Mice were sacrificed on Day 21. Female BALB-cA nude mice, 6-7 weeks old, purchased from Shanghai Ling-chang Biotech Co., Ltd, were subcutaneously inoculated with MV-4-11 cells (from ATCC). […] Mice body weights and tumor sizes were measured twice a week. The tumor volume, T/C and tumor volume based TGI were calculated as described above. Mice were sacrificed on Day 11.

solid cancer cell lines = assay: MTT tumor cell proliferation, solid cancer cell lines (summary); type: cell-based; conditions: summary of Table 2
Protocol: (§1) as an exemplary compound of formula (I), was tested for its inhibitory effect on tumor cell proliferation in a MTT assay.
(§2) Briefly, cells at the log phase were collected, suspended in the cell culture medium at 4*10^4/ml density, and plated in 96-well plates, 90 μl per well. The plates were kept in a 5% CO2 and 37° C. incubator for 2 hours, and then added with 100 μg/ml, 10 μg/ml, 1 μg/ml, 0.1 μg/ml, 0.01 μg/ml or 0.001 μg/ml Compound A, 4 replicates for each cell at each compound concentration. DMSO was used in the positive control group, and another negative group was also set. After 72 hour incubation in the same incubator, 20 μl 5 mg/ml MTT reagent was added to each well. After another 4 hour incubation, each well was added with 100 μl SDS and further incubated for 12 hours. Absorbance at 570 nm was read in a reader, and IC50 was calculated.

H526 = assay: Tumor cell death by MTT, H526; type: cell-based, human; conditions: 20 nM
Protocol: (§3) The in vitro inhibitory effect of Compound A alone or in combination with a PARP inhibitor on tumor cell growth was tested using human small cell lung cancer (SCLC) cell lines, including H69 (ATCC® HTB-119™), H526 (ATCC® CRL-5811™) and H446 (TCHu196, National Collection of Authenticated Cell Cultures).
(§4) Briefly, the cells were seeded into a 96-well dish with RPMI-1640 (10-040-CV, Coming cellgro) containing 10% fetal bovine serum (10270-106, GIBCO), 1% penicillin and 1% streptomycin (BaSalMedia, S110JV), at an initial density of 3×10^3 cells per well ([…]), and cultured at a 37° C., 5% CO2 humidified incubator for 24 hours. Then, the culture media were added with Compound A (final concentration at 20 nM), olaparib (APEXBIO, A4154, a PARP inhibitor, final concentration at 10 μM), Compound A + olaparib (final concentrations at20 nM and 10 μM), or PBS (vehicle), respectively, and the cells were cultured for 48 hours. Then, cell viability was determined by MTT. The test was done in triplicate.
(§5) Cell death rate was calculated by the following formula.
(§6) Cell death rate=[1−(ODtest-ODvehicle)]×100%
(§7) Cell death rates were analyzed using student's t-test, and group differences were deemed statistically significant when the p-value was lower than 0.05. Zheng-Jun Jin's Q value was calculated using the formula Q=EA+B/(EA+EB-EA×EB) to assess the combined effect of Compound A and the PARP inhibitor, wherein EA+B, EA, and EB referred to the cell death rates caused by the combined treatment, Compound A treatment and PARP inhibitor treatment, respectively. A Q value higher than 1.15 meant a synergistic […] effect.
(§8) Another PARP inhibitor, rucaparib (APEXBIO, A4156), was tested alone or with Compound A for inhibitory effect on tumor cell growth, following the protocol of Example 9.

H446 = assay: Tumor cell death by MTT, H446; type: cell-based, human; conditions: 20 nM
Protocol: as §3, §4, §5, §6, §7, §8

PDGFR = assay: Inhibition of PDGFR phosphorylation; type: biochemical
Text: (§9) FLT3 is a class III receptor tyrosine kinase and plays an important role in hematopoiesis and lymphocyte development. […] Wang et al found over 60% of 82 leukemia cell lines were FLT3 positive (Wang Y et al., (2006) Journal of Experimental Hematology 14(3): 446-449). FLT3-internal tandem duplication (ITD) is the most commonly seen mutation in AML patients, with about 17-34% of AML patients carrying such a mutation (Jia H et al., (2018) Medical Laboratory Science and Clinics 19(5): 39). […] Thus, the compounds of the disclosure with high inhibitory effect on FLT3 function may be good candidates for leukemia treatment.

A549 = assay: MTT tumor cell proliferation, A549; type: cell-based; conditions: Homo sapiens; A549, Lung cancer, 72 hour
Protocol: as §1, §2

[1] = tested on: Ls-174t human colon cancer cells; assay: Ls-174t colon cancer xenograft in mice; type: in vivo, BALB/cA-nude mice; conditions: for T/C: D14
Text: Mice were sacrificed on Day-14.

KDR (VEGFR-2) = KDR (VEGFR-2) (Homo sapiens, UniProt P35968); assay: Inhibition of KDR phosphorylation; type: biochemical
Chain of KDR (VEGFR-2) (P35968 20-1356, species assumed): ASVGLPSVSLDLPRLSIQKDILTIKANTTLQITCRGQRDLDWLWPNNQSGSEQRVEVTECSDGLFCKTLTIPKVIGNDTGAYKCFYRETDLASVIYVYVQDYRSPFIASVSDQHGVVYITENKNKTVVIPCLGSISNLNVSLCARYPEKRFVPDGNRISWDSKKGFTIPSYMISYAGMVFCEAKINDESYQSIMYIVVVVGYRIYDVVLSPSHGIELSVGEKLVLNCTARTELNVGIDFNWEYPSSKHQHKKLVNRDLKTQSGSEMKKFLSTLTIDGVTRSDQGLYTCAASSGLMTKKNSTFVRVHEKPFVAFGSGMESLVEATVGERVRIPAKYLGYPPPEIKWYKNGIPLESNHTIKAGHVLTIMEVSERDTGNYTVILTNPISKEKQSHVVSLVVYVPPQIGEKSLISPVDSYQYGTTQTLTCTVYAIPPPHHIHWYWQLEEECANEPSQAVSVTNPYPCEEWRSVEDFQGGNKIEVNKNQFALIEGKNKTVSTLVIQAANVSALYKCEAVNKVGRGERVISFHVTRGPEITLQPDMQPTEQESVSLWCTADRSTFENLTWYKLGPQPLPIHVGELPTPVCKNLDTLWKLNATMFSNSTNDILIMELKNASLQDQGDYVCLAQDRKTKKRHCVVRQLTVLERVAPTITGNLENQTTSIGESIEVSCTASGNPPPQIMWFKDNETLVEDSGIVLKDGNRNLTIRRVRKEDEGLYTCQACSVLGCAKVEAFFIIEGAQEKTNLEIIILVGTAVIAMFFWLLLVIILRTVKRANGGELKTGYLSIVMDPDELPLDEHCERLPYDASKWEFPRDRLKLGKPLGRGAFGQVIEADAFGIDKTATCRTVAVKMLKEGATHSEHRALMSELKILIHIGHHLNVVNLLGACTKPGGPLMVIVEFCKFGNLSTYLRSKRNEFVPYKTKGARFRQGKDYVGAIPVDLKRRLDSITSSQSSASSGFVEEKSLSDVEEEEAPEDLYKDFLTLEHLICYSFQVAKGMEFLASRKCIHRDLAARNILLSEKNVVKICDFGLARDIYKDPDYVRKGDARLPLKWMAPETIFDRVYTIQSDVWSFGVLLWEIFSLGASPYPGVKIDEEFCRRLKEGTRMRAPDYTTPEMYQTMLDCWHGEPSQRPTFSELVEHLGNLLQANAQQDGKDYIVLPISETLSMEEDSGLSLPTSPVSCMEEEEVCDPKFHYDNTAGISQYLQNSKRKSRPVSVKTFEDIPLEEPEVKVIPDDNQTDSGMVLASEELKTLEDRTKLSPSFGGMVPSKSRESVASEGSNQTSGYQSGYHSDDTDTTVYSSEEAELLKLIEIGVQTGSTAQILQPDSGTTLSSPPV
Text: as §9

c1cnc2ccc(Nc3nc(NC4CC4)c4nc[nH]c4n3)cc2c1 [Compound A]
T/C (MV-4-11 cells; D11): 71% | TGI (MV-4-11 cells; D11): 29% | Tumor volume D0 (MV-4-11 cells; in mm³): 150.9 | Tumor volume D11 (MV-4-11 cells; in mm³): 2076.3 | IC50 (solid cancer cell lines): ≥ 2300 nM | Cell Death Rate/% 1 (H526; 48 hours, Table 10): 10.5% | Cell Death Rate/% 2 (H526; 48 hours, Table 10): 9.87% | Cell Death Rate/% 3 (H526; 48 hours, Table 10): 10.95% | Cell Death Rate/% mean (H526; 48 hours, Table 10): 10.44% | Cell Death Rate/% 1 (H526; Example 10, Table 11): 8.29% | Cell Death Rate/% 2 (H526; Example 10, Table 11): 8.39% | Cell Death Rate/% 3 (H526; Example 10, Table 11): 8.64% | Cell Death Rate/% mean (H526; Example 10, Table 11): 8.44% | Cell Death Rate/% 1 (H446; 48 hours, Table 10): 13.5% | Cell Death Rate/% 2 (H446; 48 hours, Table 10): 13.18% | Cell Death Rate/% 3 (H446; 48 hours, Table 10): 13.67% | Cell Death Rate/% mean (H446; 48 hours, Table 10): 13.45% | Cell Death Rate/% 1 (H446; Example 10, Table 11): 15% | Cell Death Rate/% 2 (H446; Example 10, Table 11): 14.62% | Cell Death Rate/% 3 (H446; Example 10, Table 11): 15.17% | Cell Death Rate/% mean (H446; Example 10, Table 11): 14.93% | EC50 (PDGFR): ~1000 nM | IC50 (A549): 2300 ± 800 nM | Body weight (without tumor) D0 ([1]; 25 mg/kg P.O., D0, 2, 4, 8, 10): 23.7 g | Body weight (without tumor) D14 ([1]; 25 mg/kg P.O., D0, 2, 4, 8, 10): 17.7 g | RTV at D14 ([1]; 25 mg/kg P.O., D0, 2, 4, 8, 10): 13.91 ± 2.39 | Tumor volume D0 ([1]; 25 mg/kg P.O., D0, 2, 4, 8, 10): 145 ± 19 mm^3 | Tumor volume D14 ([1]; 25 mg/kg P.O., D0, 2, 4, 8, 10): 1997 ± 316 mm^3 | T/C ([1]; 25 mg/kg P.O., D0, 2, 4, 8, 10): 66% | Body weight (without tumor) D0 ([1]; 50 mg/kg P.O., D0, 3, 6, 9): 23.4 g | Body weight (without tumor) D14 ([1]; 50 mg/kg P.O., D0, 3, 6, 9): 16.2 g | RTV at D14 ([1]; 50 mg/kg P.O., D0, 3, 6, 9): 8.21 ± 3.55 | Tumor volume D0 ([1]; 50 mg/kg P.O., D0, 3, 6, 9): 147 ± 22 mm^3 | Tumor volume D14 ([1]; 50 mg/kg P.O., D0, 3, 6, 9): 1176 ± 450 mm^3 | T/C ([1]; 50 mg/kg P.O., D0, 3, 6, 9): 38.9* % | Body weight (without tumor) D0 ([1]; 50 mg/kg P.O., D0, 4, 8): 23.3 g | Body weight (without tumor) D14 ([1]; 50 mg/kg P.O., D0, 4, 8): 16.9 g | RTV at D14 ([1]; 50 mg/kg P.O., D0, 4, 8): 10.25 ± 2.39 | Tumor volume D0 ([1]; 50 mg/kg P.O., D0, 4, 8): 149 ± 29 mm^3 | Tumor volume D14 ([1]; 50 mg/kg P.O., D0, 4, 8): 1497 ± 282 mm^3 | T/C ([1]; 50 mg/kg P.O., D0, 4, 8): 48.6* % | EC50 (KDR (VEGFR-2)): ~1000 nM
